Measurements published in patent US8569298B2, “Pyridine compounds” (Astrazeneca AB, priority 2008, dated 2013).

What follows are molecules tested against T1, FAK enzyme (6 His tagged kinase domain, GenBank NP—722560) (Homo sapiens, UniProt Q05397) (assay: In vitro enzyme assay (a): sandwich ELISA of FAK tyrosine kinase activity on polyGAT peptide, TMB colorimetric endpoint). Settings: in vitro Enzyme Assay test (a); ATP at Km; geometric mean of n > 1 measurements, values marked * tested once.
T1 construct: 6 His; made in house; host or cells: insect cell culture infected with baculovirus
Assay type: biochemical
Procedure: (a) In Vitro Enzyme Assay
A sandwich ELISA assay with a 3,3′,5,5′-tetramethyl benzidine (TMB) colorimetric endpoint was used in order to determine the level of effect of selected compounds on inhibition of FAK protein tyrosine kinase enzyme activity. A synthetic tyrosine containing peptide is coated onto a plastic surface, the level of phosphorylation of these tyrosine residues by the kinase enzyme in the presence of inhibitors is measured using an antibody that binds specifically to phosphorylated tyrosine residues. The amount of antibody bound to substrate is proportional to the level of enzyme catalysis.
Assay Protocol to Identify Inhibitors of Focal Adhesion Kinase (FAK).
A PlateMate Plus™ 384 automated liquid handling unit with a 100 μl disposable tip head was used to make all the non compound reagent additions and a Tecan 384PW plate washer with 384 head was used for all wash steps. Initially Matrix 384 well polystyrene plates (Cat #:4311) were coated with 40 μl/well of a 0.0375 mg/ml solution of synthetic poly peptide (polyGAT, Sigma Cat #:P3899) dissolved in phosphate buffered saline (PBS). Plates were stored overnight at 4° C. Immediately before use the coating solution was aspirated out and each well washed with 2×100 μl of PBS+0.05% Tween 20. To remove surplus phosphate, the wells were then washed with 2×100 μl 50 mM HEPES buffer pH 7.4. Plates were blotted dry before the addition of compounds. Compounds were tested over a 12 point dose range, a Labcyte Echo 550 was used to dispense compounds in nl volumes and back fill with DMSO. The final concentration of compound in the assay was dependent on the starting concentration of compound. For a 10 mM stock compound the final assay dose ranged from 100 μM down to […]. Control wells containing 120 nl DMSO (Max) or 120 nl of 10 mM staurosporine (LC Laboratories, Boston, USA Cat #: S-9300) (Min) were included in each plate. 10 ul of 5% dimethyl sulfoxide v/v (DMSO, Fisher Scientific) was added to each well immediately prior to addition of 10 μl of a co-factor solution containing 80 mM MgCl2 (Sigma Cat #: M1028); 80 mM MnCl2 (Sigma Cat #: M1787); ATP at a concentration calculated to enable the initial reaction velocity to progress at half the maximum velocity (Km for ATP) (Sigma Cat #:A7699). A final addition of 20 μl of enzyme solution containing 100 mM HEPES pH7.4; 0.2 mM sodium vanadate (Sigma Cat #:S6508); 0.2 g/l bovine serum albumin (BSA, Sigma Cat #: A7888); 0.2 mM dithioreitol (Sigma Cat #: 5545); 0.1% Triton X100 (Sigma Cat #:X100); FAK enzyme (20 μl/ml) was made to each well to start the assay running FAK enzyme was generated from an insect culture infected with baculo virus containing the DNA sequence encoding the 6 His tagged kinase domain (GenBank NP_722560).
Plates were left at room temperature for 25 minutes before 10 μl of 500 mM ethylenediaminetetraacetic acid (EDTA) was added to stop the assay and the wells were immediately washed 3×100 μl with PBS+0.05% Tween 20. A 4G10 antibody (Millipore Cat #: 16-105; 16-184) with a directly conjugated horse radish peroxidase (HRP) was used to detect the phosphorylation of the substrate by the FAK. 40 μl of PBS+0.05% Tween 20 containing 0.5% BSA and 0.1 μl/ml antibody was added to each well and left for 1 hour at room temperature to allow the antibody to bind. After this period the wells were again washed with 3×100 μl of PBS+0.05% Tween 20. TMB (Sigma Cat #: T2885) was used as a substrate for the HRP. Phosphate-citrate buffer was made up using capsules provided by Sigma (Cat #: P4922) following the manufacturers guidelines. TMB was dissolved at a concentration of 1 mg/ml in DMSO and let down to a final concentration of 0.05 mg/ml with the phosphor-citrate buffer. 40 μl of the TMB solution was added to each assay well and left for 30 minutes for the blue colour to develop. […]

T1 sequence (Q05397 422-680 limits assumed): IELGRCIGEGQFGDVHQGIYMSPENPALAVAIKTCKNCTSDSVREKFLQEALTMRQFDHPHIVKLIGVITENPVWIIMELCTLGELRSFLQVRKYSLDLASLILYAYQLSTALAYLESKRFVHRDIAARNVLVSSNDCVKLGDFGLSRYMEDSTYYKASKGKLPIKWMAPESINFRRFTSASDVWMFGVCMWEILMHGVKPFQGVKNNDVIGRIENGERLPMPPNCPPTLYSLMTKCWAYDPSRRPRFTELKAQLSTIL

**Q.** Which IC50 does the source give for `CNC(=O)c1ccccc1Nc1cc(Nc2cnn(CC(=O)N3CCCN(C)CC3)c2)ncc1Cl` [Example 3.04, 2-[[5-chloro-2-[[1-[2-(4-methyl-1,4-diazepan-1-yl)-2-oxo-ethyl]pyrazol-4-yl]amino]-4-pyridyl]amino]-N-methyl-benzamide] here?
**A.** 68 nM

**Q.** For `CNC(=O)c1ccccc1Nc1cc(Nc2cnn(CC(=O)N3CCOCC3)c2)ncc1Cl` [Example 3.05, 2-[[5-chloro-2-[[1-(2-morpholino-2-oxo-ethyl)prazol-4-yl]amino]-4-pyridyl]amino]-N-methyl-benzamide], which IC50 is on record?
**A.** 90 nM

**Q.** Which IC50 does the source give for `CNC(=O)c1ccccc1Nc1cc(Nc2cnn(CC(=O)N(C)CCOC)c2)ncc1Cl` [Example 3.06, 2-[[5-chloro-2-[[1-[2-(2-methoxyethyl-methyl-amino)-2-oxo-ethyl]pyrazol-4-yl]amino]-4-pyridyl]amino]-N-methyl-benzamide] here?
**A.** 99 nM

**Q.** `CNC(=O)c1ccccc1Nc1cc(Nc2cnn(CC(=O)N3CCN(C)CC3)c2)ncc1Cl` [Example 3.07, 2-[[5-chloro-2-[[1-[2-(4-methylpiperazin-1-yl)-2-oxo-ethyl]pyrazol-4-yl]amino]-4-pyridyl]amino]-N-methyl-benzamide] was tested. Which IC50 did it give?
**A.** 48 nM

**Q.** Which IC50 does the source give for `CNC(=O)c1ccccc1Nc1cc(Nc2cc(OC)nn2C)ncc1Cl` [Example 3.08, 2-[[5-Chloro-2-[(5-methoxy-2-methylpyrazol-3-yl)amino]pyridin-4-yl]amino]-N-methylbenzamide] here?
**A.** 60 nM

**Q.** How did the IC50 turn out when `CNC(=O)c1ccccc1Nc1cc(Nc2cc(C)nn2C)ncc1Cl` [Example 3.09, 2-[[5-chloro-2-[(2,5-dimethylpyrazol-3-yl)amino]-4-pyridyl]amino]-N-methyl-benzamide] was run?
**A.** 29 nM

**Q.** `CNC(=O)c1ccccc1Nc1cc(Nc2cc(C)n(C)n2)ncc1Cl` [Example 3.10, 2-[[5-chloro-2-[(1,5-dimethylpyrazol-3-yl)amino]-4-pyridyl]amino]-N-methyl-benzamide] was tested. Which IC50 did it give?
**A.** 45 nM

**Q.** `CNC(=O)c1ccccc1Nc1cc(Nc2cnn(C)c2)ncc1Cl` [Example 3.11, 2-[[5-chloro-2-[(1-methylpyrazol-4-yl)amino]-4-pyridyl]amino]-N-methyl-benzamide] was tested. Which IC50 did it give?
**A.** 439 nM

**Q.** How did the IC50 turn out when `CNC(=O)c1ccccc1Nc1cc(Nc2cnn(C3CCN(C)CC3)c2)ncc1Cl` [Example 3.12, 2-[[5-chloro-2-[[1-(1-methyl-4-piperidyl)pyrazol-4-yl]amino]-4-pyridyl]amino]-N-methyl-benzamide] was run?
**A.** 195 nM

**Q.** Which IC50 does the source give for `CNC(=O)c1ccccc1Nc1cc(Nc2cnn(C3CCN(C(C)=O)CC3)c2)ncc1Cl` [Example 3.13, 2-[(2-[[1-(1-acetyl-4-piperidyl)pyrazol-4-yl]amino]-5-chloro-4-pyridyl]amino]-N-methyl-benzamide] here?
**A.** 128 nM

**Q.** How did the IC50 turn out when `CNC(=O)c1ccccc1Nc1cc(Nc2cn(C)nc2C)ncc1Cl` [Example 3.14, 2-[[5-chloro-2-[(1,3-dimethylpyrazol-4-yl)amino]-4-pyridyl]amino]-N-methyl-benzamide] was run?
**A.** 45 nM

**Q.** Which IC50 does the source give for `CNC(=O)c1ccccc1Nc1cc(Nc2cnn(C3CCOCC3)c2)ncc1Cl` [Example 3.15, 2-[[5-chloro-2-[(1-tetrahydropyran-4-ylpyrazol-4-yl)amino]-4-pyridyl]amino]-N-methyl-benzamide] here?
**A.** 670 nM

**Q.** With `CNC(=O)c1ccccc1Nc1cc(Nc2cc(C)[nH]n2)ncc1Cl` [Example 3.16, 2-[[5-Chloro-2-[(5-methyl-1H-pyrazol-3-yl)amino]pyridin-4-yl]amino]-N-methylbenzamide] as the molecule, how does the IC50 read?
**A.** 93 nM

**Q.** `CNC(=O)c1ccccc1Nc1cc(Nc2cc(C3CC3)[nH]n2)ncc1Cl` [Example 3.17, 2-[[5-chloro-2-[(5-cyclopropyl-1H-pyrazol-3-yl)amino]-4-pyridyl]amino]-N-methyl-benzamide] was tested. Which IC50 did it give?
**A.** 93 nM

**Q.** Which IC50 does the source give for `CNC(=O)c1ccccc1Nc1cc(Nc2cn(C)cn2)ncc1Cl` [Example 3.18, 2-[[5-chloro-2-[(1-methylimidazol-4-yl)amino]-4-pyridyl]amino]-N-methyl-benzamide] here?
**A.** 275 nM

**Q.** With `CNC(=O)c1ccccc1Nc1cc(Nc2cnn(C3CCNCC3)c2)ncc1Cl` [Example 3.19, 2-[[5-Chloro-2-[[1-(4-piperidyl)pyrazol-4-yl]amino]-4-pyridyl]amino]-N-methyl-benzamide] as the molecule, how does the IC50 read?
**A.** 686 nM

**Q.** `CON(C)C(=O)c1ccccc1Nc1cc(Nc2cnn(C3CCN(C)CC3)c2)ncc1Cl` [Example 3.20, 2-[[5-Chloro-2-[[1-(1-methyl-4-piperidyl)pyrazol-4-yl]amino]-4-pyridyl]amino]-N-methoxy-N-methyl-benzamide] was tested. Which IC50 did it give?
**A.** 1230 nM

**Q.** `CON(C)C(=O)c1ccccc1Nc1cc(Nc2cn(C)nc2C)ncc1Cl` [Example 3.21, 2-[[5-chloro-2-[(1,3-dimethylpyrazol-4-yl)amino]-4-pyridyl]amino]-N-methoxy-N-methyl-benzamide] was tested. Which IC50 did it give?
**A.** 324 nM

**Q.** How did the IC50 turn out when `Cc1nn(C)cc1Nc1cc(Nc2cccc3c2C(=O)N(C)CCO3)c(Cl)cn1` [Example 3.22, 6-[[5-Chloro-2-[(1,3-dimethylpyrazol-4-yl)amino]-4-pyridyl]amino]-4-methyl-2,3-dihydro-1,4-benzoxazepin-5-one] was run?
**A.** 25 nM

**Q.** For `CN1CCc2cccc(Nc3cc(Nc4cnn(CC(=O)N5CCCC5)c4)ncc3Cl)c2C1=O` [Example 3.23, 8-[[5-Chloro-2-[[1-(2-oxo-2-pyrrolidin-1-yl-ethyl)pyrazol-4-yl]amino]-4-pyridyl]amino]-2-methyl-3,4-dihydroisoquinolin-1-one], which IC50 is on record?
**A.** 20 nM

**Q.** Which IC50 does the source give for `COCCNC(=O)Cn1cc(Nc2cc(Nc3cccc4c3C(=O)N(C)CC4)c(Cl)cn2)cn1` [Example 3.24, 2-[4-[[5-chloro-4-[(2-methyl-1-oxo-3,4-dihydroisoquinolin-8-yl)amino]-2-pyridyl]amino]pyrazol-1-yl]-N-(2-methoxyethyl)acetamide] here?
**A.** 18 nM

**Q.** `COCCN(C)C(=O)Cn1cc(Nc2cc(Nc3cccc4c3C(=O)N(C)CC4)c(Cl)cn2)cn1` [Example 3.25, 2-[4-[[5-chloro-4-[(2-methyl-1-oxo-3,4-dihydroisoquinolin-8-yl)amino]-2-pyridyl]amino]pyrazol-1-yl]-N-(2-methoxyethyl)-N-methyl-acetamide] was tested. Which IC50 did it give?
**A.** 27 nM

**Q.** Which IC50 does the source give for `CN(C)CCNC(=O)Cn1cc(Nc2cc(Nc3cccc4c3C(=O)N(C)CC4)c(Cl)cn2)cn1` [Example 3.26, 2-[4-[[5-chloro-4-[(2-methyl-1-oxo-3,4-dihydroisoquinolin-8-yl)amino]-2-pyridyl]amino]pyrazol-1-yl]-N-(2-dimethylaminoethyl)acetamide] here?
**A.** 38 nM

**Q.** How did the IC50 turn out when `CN1CCc2cccc(Nc3cc(Nc4cnn(CC(=O)N5CCOCC5)c4)ncc3Cl)c2C1=O` [Example 3.27, 8-[[5-chloro-2-[[1-(2-morpholino-2-oxo-ethyl)pyrazol-4-yl]amino]-4-pyridyl]amino]-2-methyl-3,4-dihydroisoquinolin-1-one] was run?
**A.** 11 nM

**Q.** Which IC50 does the source give for `CN1CCc2cccc(Nc3cc(Nc4cnn(C)c4)ncc3Cl)c2C1=O` [Example 3.28, 8-[[5-Chloro-2-[(1-methylpyrazol-4-yl)amino]-4-pyridyl]amino]-2-methyl-3,4-dihydroisoquinolin-1-one] here?
**A.** 41 nM

**Q.** Which IC50 does the source give for `CN1CCC(n2cc(Nc3cc(Nc4cccc5c4C(=O)N(C)CC5)c(Cl)cn3)cn2)CC1` [Example 3.29, 8-[[5-chloro-2-[[1-(1-methyl-4-piperidyl)pyrazol-4-yl]amino]-4-pyridyl]amino]-2-methyl-3,4-dihydroisoquinolin-1-one] here?
**A.** 118 nM
